Laboratory results as given in ChEMBL document CHEMBL1201862, “PubChem BioAssay data set” (2004).
pIC50: −log10 of the molar value. Active and inactive are the calls of the source.

What was measured:
[1] = inhibitors of intracellular T. cruzi replication, confirmation, NIH3T3 host cells, beta-gal luminescence (AID 2044); type: functional, cell-based;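 also: intracellular parasites grown in NIH/3T3 mouse fibroblasts as host cells; luminescent beta-galactosidase reporter signal from transgenic T. cruzi replicating inside host cells; inhibitors lower the luminescence signal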
[2] = cytotoxicity toward NIH3T3 fibroblasts, dose response, counter-screen, cell-based, ATP luminescence, mouse fibroblasts (AID 2010); type: functional;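 also: cells exposed to compound for about 90 hours before reading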
[3] = THP-1 cell cytotoxicity, dose response, cytotoxicity control for non-replicating M. tuberculosis project (AID 489025); type: functional
[4] = HepG2 cell cytotoxicity, dose response, cytotoxicity control for non-replicating M. tuberculosis project (AID 489018); type: functional; conditions: Mycobacterium tuberculosis
[5] = Vero E6 cell cytotoxicity, dose response, cytotoxicity control for non-replicating M. tuberculosis project, secondary assay (AID 492998); type: functional, VeroE6; conditions: Vero C1008
cells = type: functional
INS1 = experiment: beta cell apoptosis inhibitors, cytokine rescue, dose response, luminescence, retest (AID 449756); type: functional, cell-based; conditions: Rattus norvegicus;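 also: cell death triggered by IL-1 beta plus TNF-alpha plus IFN-gamma mixture; protective hits raise ATP signal compared with cytokine alone wells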
[6] = target: T1, DNA dC->dU-editing enzyme APOBEC-3A (Homo sapiens, UniProt P31941); experiment: APOBEC3A DNA deaminase inhibitors, dose response, biochemical (AID 504722); type: functional
T1 sequence (P31941 whole entry): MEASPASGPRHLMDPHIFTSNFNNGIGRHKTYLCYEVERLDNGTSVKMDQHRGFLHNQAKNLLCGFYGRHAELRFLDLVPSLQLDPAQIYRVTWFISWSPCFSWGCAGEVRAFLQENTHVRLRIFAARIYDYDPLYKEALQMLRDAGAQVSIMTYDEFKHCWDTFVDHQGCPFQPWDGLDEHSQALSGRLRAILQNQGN

[7] = target: T2, DNA dC->dU-editing enzyme APOBEC-3G (Homo sapiens, UniProt Q9HC16); experiment: Dose Response confirmation of small molecule APOBEC3G DNA Deaminase Inhibitors via a fluorescence-based single-stranded DNA deaminase assay. [Related pubchem assays (depositor defined):AID493012, AID493028]; type: functional
T2 sequence (Q9HC16 whole entry): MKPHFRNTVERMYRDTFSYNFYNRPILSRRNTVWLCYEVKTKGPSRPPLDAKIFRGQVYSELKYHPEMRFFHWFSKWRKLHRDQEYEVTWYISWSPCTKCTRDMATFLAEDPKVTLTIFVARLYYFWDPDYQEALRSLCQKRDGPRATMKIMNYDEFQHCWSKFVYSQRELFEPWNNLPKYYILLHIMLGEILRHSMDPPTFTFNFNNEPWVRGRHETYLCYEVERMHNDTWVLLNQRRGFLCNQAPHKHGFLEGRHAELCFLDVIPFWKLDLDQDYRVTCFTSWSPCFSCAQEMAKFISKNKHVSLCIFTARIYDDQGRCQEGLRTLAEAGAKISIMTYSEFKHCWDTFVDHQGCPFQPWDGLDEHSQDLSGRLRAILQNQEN

[8] = target: T1, DNA dC->dU-editing enzyme APOBEC-3A; experiment: Dose Response confirmation of small molecule APOBEC3A DNA Deaminase Inhibitors via a fluorescence-based single-stranded DNA deaminase assay. [Related pubchem assays (depositor defined):AID493011, AID493024]; type: functional
[9] = target: T2, DNA dC->dU-editing enzyme APOBEC-3G; type: functional
[10] = target: T3, Rac GTPase-activating protein 1 (Homo sapiens, UniProt Q9H0H5); experiment: MgcRacGAP GTPase-activating activity inhibitors, confirmation, biochemical, ADP Hunter fluorescence, primary and confirmatory (AID 624330); type: functional
T3 sequence (Q9H0H5 whole entry): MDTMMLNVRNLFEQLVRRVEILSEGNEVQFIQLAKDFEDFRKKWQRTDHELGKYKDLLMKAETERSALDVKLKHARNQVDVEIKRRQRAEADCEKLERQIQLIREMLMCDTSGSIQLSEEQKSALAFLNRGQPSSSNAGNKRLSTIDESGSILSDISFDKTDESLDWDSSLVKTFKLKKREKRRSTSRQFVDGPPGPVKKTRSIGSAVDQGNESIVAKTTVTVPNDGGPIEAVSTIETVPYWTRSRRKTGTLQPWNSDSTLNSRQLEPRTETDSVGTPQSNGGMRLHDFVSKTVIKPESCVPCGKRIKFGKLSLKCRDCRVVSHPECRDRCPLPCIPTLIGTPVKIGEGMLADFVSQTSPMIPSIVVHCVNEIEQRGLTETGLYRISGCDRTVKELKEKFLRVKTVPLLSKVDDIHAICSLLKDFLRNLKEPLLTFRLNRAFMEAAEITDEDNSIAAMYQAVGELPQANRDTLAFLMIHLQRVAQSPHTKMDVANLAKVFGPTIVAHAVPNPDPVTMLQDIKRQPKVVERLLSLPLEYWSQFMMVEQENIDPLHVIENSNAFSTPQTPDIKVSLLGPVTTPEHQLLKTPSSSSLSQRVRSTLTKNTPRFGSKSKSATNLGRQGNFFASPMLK

[11] = test system: Streptococcus sp. 'group A'; experiment: growth inhibition of control SK(-) GAS strain, dose response, counter-screen for streptokinase expression inhibitor project, luminescence, kanamycin, BacTiterGlo, confirmation (AID 1900); type: functional, organism-based
Streptokinase A = target: T4, Streptokinase A (Streptococcus pyogenes serotype M1, UniProt P10520); experiment: S. pyogenes streptokinase expression inhibitors, potency, dose response, plasminogen activation absorbance, OD405 (AID 1914); type: functional, Streptococcus pyogenes M1 GAS;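 also: secreted streptokinase activity via plasminogen activation per viability signal from cell pellet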
T4 sequence (P10520 whole entry): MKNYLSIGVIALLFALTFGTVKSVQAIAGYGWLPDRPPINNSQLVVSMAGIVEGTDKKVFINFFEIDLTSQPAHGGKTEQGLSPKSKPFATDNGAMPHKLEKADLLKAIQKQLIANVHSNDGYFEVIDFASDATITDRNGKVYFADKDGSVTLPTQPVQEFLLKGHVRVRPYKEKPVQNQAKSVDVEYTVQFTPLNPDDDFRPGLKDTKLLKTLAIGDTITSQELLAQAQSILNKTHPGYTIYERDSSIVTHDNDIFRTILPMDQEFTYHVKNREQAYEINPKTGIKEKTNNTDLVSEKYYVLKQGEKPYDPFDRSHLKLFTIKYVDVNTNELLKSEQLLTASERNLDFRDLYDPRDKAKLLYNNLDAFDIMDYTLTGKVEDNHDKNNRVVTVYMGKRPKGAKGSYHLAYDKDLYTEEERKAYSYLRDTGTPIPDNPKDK

[12] = target: T5, Kappa-type opioid receptor (Homo sapiens, UniProt P41145); type: functional
T5 sequence (P41145 whole entry): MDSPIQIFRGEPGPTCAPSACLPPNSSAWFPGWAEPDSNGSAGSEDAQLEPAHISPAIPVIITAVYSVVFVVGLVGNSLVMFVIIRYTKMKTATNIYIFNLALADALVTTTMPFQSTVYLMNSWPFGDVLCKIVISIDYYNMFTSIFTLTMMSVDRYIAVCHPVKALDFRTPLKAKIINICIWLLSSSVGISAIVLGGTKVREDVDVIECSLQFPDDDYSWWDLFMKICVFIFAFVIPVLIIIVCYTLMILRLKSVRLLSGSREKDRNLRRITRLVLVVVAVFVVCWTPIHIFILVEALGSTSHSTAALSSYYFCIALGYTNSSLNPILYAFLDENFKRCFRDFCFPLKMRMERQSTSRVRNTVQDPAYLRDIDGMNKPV

Beta-galactosidase = Beta-galactosidase (Escherichia coli, UniProt Q8VNN2); type: functional
Beta-galactosidase, sequence (Q8VNN2 whole entry): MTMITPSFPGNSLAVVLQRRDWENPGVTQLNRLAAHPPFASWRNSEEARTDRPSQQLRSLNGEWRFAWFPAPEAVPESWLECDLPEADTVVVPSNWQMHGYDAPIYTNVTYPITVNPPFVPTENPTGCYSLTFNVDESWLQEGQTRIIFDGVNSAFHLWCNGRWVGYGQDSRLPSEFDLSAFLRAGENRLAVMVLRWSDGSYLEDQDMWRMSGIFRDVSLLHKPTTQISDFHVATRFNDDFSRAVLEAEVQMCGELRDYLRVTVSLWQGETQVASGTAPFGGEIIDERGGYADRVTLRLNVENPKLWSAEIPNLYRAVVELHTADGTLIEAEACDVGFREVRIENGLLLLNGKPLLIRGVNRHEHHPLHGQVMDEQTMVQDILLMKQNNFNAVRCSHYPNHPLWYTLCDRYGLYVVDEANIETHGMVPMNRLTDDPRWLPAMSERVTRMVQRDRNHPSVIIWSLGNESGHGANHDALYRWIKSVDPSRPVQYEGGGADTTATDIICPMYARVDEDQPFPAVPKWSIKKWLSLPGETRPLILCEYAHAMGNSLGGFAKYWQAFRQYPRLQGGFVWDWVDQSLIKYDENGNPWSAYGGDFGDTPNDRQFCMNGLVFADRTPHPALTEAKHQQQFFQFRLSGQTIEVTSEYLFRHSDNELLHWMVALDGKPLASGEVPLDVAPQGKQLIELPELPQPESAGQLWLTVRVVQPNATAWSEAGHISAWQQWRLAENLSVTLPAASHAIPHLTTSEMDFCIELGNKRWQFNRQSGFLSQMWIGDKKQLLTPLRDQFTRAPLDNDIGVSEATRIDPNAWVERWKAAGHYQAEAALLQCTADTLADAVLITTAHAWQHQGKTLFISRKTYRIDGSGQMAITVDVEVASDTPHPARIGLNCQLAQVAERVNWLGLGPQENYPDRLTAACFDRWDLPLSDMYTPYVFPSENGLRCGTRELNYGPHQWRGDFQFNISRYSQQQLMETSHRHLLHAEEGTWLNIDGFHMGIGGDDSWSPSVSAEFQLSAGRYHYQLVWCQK

[13] = target: T5, Kappa-type opioid receptor; type: functional; remark: listed apart in the source
Streptococcus = experiment: Group A Streptococcus viability loss, dose response, counter-screen for streptokinase expression inhibitor project, luminescence, BacTiterGlo (AID 1915); type: functional, organism-based;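 also: potency for reduction of bacterial viability or growth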
[14] = target: Heat shock protein HSP 90-alpha (Homo sapiens, UniProt P07900); type: functional, organism-based
[15] = target: T6, RNA-binding protein pos-1 (Caenorhabditis elegans, UniProt G5EF15); experiment: inhibitors of POS-1/mex-3 RNA binding, dose response, biochemical, fluorescence polarization (AID 1964);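 also: purified POS-1 fused to maltose binding protein made in E. coli; potency of compounds blocking POS-1 binding to fluorescent RNA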
T6 sequence (G5EF15 whole entry): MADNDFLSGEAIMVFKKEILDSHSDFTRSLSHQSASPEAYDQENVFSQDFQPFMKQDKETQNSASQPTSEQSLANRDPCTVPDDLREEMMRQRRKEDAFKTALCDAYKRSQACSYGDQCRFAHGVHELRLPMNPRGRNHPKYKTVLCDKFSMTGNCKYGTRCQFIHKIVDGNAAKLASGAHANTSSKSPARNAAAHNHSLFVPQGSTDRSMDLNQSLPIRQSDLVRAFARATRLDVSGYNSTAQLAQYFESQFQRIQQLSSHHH

[16] = target: T7, Zinc finger protein mex-5 (Caenorhabditis elegans, UniProt Q9XUB2); experiment: MEX-5/TCR-2 RNA interaction inhibitors, dose response, biochemical, C. elegans, fluorescence polarization (AID 1960)
T7 sequence (Q9XUB2 whole entry): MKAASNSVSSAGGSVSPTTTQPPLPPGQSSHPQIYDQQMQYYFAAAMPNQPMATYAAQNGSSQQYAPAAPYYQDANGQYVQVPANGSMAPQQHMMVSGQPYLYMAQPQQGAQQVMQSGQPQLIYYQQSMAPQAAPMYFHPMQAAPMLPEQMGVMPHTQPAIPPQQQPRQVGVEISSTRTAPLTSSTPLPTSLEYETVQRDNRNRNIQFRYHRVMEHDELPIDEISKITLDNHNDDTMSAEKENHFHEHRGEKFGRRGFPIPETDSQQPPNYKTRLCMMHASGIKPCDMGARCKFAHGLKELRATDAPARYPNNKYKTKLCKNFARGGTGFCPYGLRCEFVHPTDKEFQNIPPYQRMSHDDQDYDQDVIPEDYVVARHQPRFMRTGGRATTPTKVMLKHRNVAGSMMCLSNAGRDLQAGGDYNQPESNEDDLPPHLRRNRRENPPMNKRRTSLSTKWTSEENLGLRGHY

[17] = target: Neurotensin receptor type 1 (Homo sapiens, UniProt P30989); type: functional;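 also: Image-based confirmatory dose-response assay measuring agonist activity at NTR1; NTR1-expressing U2OS osteosarcoma cells imaged for beta-arrestin GFP spot formation; agonist potency where compounds increase beta-arrestin recruitment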
Neurotensin receptor type 1, sequence (P30989 whole entry): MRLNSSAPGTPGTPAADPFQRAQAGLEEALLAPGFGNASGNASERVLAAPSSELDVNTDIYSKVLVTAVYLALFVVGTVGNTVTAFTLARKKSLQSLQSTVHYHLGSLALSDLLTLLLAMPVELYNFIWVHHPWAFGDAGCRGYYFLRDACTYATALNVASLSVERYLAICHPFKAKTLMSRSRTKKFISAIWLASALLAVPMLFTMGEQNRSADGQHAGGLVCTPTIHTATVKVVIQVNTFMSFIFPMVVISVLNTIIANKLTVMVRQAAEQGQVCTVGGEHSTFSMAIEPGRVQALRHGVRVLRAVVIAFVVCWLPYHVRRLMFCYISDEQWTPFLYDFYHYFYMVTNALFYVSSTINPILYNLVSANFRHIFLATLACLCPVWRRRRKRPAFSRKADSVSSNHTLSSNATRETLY

[18] = target: T8, Microphthalmia-associated transcription factor (Homo sapiens, UniProt O75030); experiment: TRPM1 promoter luciferase signal decrease, dose response, MITF inhibitor project, cell-based, SK-MEL-5, cherry-picked, set 3 (AID 493073); type: functional
T8 sequence (O75030 whole entry): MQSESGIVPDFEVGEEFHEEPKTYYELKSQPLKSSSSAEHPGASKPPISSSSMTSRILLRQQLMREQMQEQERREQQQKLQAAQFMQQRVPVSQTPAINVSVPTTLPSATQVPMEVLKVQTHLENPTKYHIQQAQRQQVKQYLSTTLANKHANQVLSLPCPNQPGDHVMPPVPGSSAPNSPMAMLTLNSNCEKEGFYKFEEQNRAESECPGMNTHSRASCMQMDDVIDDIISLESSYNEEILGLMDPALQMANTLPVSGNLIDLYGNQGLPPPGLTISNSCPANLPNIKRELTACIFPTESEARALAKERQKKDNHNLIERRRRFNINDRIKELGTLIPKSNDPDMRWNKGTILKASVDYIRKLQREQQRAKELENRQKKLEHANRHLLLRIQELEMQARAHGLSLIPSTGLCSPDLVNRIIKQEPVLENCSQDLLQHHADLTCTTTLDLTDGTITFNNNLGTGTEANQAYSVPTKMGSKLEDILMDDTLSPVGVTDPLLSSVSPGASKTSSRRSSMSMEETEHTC

Aminopeptidase N = target: T9, Aminopeptidase N (Plasmodium falciparum FcB1/Columbia, UniProt O96935); experiment: P. falciparum M1AAP inhibitors, biochemical, fluorogenic H-Leu-NHMec substrate, 1536-well (AID 1445); set-up: species or system Plasmodium falciparum 3D7, 3D7
T9 sequence (O96935 whole entry): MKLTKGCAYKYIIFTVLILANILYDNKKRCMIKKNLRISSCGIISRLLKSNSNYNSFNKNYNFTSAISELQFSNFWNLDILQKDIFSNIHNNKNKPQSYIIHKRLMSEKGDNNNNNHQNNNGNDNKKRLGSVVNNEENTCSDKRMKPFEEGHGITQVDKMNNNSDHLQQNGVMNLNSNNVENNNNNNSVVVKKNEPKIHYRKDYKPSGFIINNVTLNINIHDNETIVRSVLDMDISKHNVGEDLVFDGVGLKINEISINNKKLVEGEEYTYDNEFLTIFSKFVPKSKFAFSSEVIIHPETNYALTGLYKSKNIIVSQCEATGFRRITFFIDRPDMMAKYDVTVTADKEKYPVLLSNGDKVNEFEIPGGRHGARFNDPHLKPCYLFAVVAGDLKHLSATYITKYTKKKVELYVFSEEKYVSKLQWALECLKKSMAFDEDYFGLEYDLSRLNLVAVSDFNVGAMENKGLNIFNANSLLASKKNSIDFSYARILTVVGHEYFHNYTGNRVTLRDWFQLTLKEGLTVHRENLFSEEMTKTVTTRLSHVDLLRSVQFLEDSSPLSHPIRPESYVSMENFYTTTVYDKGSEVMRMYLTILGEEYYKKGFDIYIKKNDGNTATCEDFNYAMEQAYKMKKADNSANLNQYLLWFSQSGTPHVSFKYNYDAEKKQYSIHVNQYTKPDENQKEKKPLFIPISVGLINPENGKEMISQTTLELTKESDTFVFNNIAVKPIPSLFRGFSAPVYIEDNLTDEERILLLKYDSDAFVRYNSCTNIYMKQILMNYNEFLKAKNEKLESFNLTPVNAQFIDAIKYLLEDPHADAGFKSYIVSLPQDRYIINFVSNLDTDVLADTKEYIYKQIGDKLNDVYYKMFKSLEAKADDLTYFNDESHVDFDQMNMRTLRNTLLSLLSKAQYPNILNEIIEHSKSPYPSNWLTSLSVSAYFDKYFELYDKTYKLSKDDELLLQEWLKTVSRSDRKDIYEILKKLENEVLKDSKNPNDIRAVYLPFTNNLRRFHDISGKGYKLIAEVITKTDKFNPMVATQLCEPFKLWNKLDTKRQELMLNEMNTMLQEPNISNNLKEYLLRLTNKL

Large T antigen = Large T antigen (Simian virus 40, UniProt P03070); type: functional, Betapolyomavirus macacae;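 also: Confirmatory-stage PubChem screen for compounds that inhibit SV40 T antigen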
Large T antigen, sequence (P03070 whole entry): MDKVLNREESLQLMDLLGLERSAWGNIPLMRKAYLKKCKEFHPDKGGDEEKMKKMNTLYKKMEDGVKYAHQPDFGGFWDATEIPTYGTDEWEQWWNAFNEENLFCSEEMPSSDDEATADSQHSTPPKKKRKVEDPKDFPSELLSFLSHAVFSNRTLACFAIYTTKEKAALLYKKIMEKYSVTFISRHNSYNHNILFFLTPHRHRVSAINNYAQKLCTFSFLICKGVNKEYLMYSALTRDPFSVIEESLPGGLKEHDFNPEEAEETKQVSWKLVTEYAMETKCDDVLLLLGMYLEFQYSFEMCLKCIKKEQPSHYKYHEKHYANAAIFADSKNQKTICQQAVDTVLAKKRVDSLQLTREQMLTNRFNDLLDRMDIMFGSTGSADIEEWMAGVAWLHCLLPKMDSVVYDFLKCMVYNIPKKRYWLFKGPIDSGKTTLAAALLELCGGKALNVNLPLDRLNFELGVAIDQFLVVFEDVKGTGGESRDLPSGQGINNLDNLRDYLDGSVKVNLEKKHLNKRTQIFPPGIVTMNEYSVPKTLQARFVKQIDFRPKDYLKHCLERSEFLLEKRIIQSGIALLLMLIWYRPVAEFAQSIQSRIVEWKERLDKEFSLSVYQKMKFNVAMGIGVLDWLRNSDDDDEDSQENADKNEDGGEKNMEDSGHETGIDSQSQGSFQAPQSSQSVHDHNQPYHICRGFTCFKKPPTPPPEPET

[19] = target: Induced myeloid leukemia cell differentiation protein Mcl-1 (Homo sapiens, UniProt Q07820); type: functional
Induced myeloid leukemia cell differentiation protein Mcl-1, sequence (Q07820 whole entry): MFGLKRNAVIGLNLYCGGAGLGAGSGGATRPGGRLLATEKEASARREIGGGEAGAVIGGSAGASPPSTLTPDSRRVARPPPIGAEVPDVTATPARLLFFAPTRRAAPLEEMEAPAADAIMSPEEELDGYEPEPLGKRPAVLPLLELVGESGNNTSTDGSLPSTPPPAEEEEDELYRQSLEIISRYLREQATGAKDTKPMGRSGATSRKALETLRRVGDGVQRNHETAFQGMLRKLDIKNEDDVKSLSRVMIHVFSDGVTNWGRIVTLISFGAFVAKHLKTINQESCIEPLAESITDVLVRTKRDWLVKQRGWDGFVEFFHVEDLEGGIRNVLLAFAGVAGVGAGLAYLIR

O=C(Cc1cccs1)N/N=C\c1ccc([N+](=O)[O-])s1
EC50 [1]: 0.36 µM (active)
EC50 [2]: 17.5 µM (active)
CC50 [3]: 15.3 µM (active)
CC50 [4]: 17.7 µM (active)
CC50 [5]: 11.5 µM (active)
IC50 (cells): 9.65 µM (active)
AC50 (INS1): 6.28 µM (active)

Sc1nnc(-c2ccco2)n1/N=C/c1c(Cl)cccc1Cl
IC50 [6]: > 100 µM (inactive)
IC50 [7]: 5.03 µM (active)

C=CCNC(=O)c1ccccc1NC(=O)C1CCN(S(=O)(=O)c2ccc(SC)cc2)CC1
IC50 [8]: 5.28 µM (active)
IC50 [9]: 6.15 µM (active)

Cc1cccc(-c2nnc(S)n2/N=C/c2ccco2)c1
IC50 [6]: > 100 µM (inactive)
IC50 [7]: 2.1 µM (active)
IC50 [10]: 89.6 µM (active)

Cc1[nH]c(N=Nc2ccccc2)nc1N=Nc1ccccc1
EC50 [11]: 3.49 µM (active)
EC50 (Streptokinase A): 23.4 µM (active)
EC50 [1]: 1.12 µM (active)
IC50 [12]: 8.4 µM (active)
EC50 [2]: 4.45 µM (active)
EC50 (Beta-galactosidase): 17.4 µM (active)
pIC50 [13]: < 4.49
EC50 (Streptococcus): > 50 µM (not active)
AC50 [14]: 3.76 µM (active)
AC50 (INS1): 3.72 µM (active)

CCOC(=O)/C=c1\s/c(=C\c2ccc3cc(OC)ccc3c2)c(=O)n1CC(=O)NCC1CCCO1 (stereo not drawn)
EC50 [15]: 90.4 µM (active)
EC50 [16]: > 300 µM (not active)
EC50 [17]: 7.15 µM (active)
AC50 [18]: 5.73 µM (active)

Nc1cc(C(=O)O)c(N)c2c1C(=O)c1ccccc1C2=O
IC50 (Aminopeptidase N): 58.9 µM (active)
EC50 [15]: 4.27 µM (active)
EC50 [16]: 2.39 µM (active)
IC50 (Large T antigen): 21.9 µM (active)
IC50 [19]: 3.71 µM (active)
